This note sets out measurements from ChEMBL document CHEMBL1131937 (Bioorg Med Chem Lett, 1999).

A word on the Ki: it is a measure of affinity in units of concentration, obtained from inhibition or displacement.

The structures appear in SMILES notation. Where only a bound is given, the exact number is not on record here.

Assay [1] can be described thus: Relative affinity for alpha-2-adrenoceptor and phenylethanolamine N-methyl-transferase (PNMT). Also noted: reference not given here.
In assay [2] the target is T1, Adrenergic receptor alpha-2 (Rattus norvegicus, UniProt P22086+P19328+P22909).
T1 sequence (P22086 whole entry): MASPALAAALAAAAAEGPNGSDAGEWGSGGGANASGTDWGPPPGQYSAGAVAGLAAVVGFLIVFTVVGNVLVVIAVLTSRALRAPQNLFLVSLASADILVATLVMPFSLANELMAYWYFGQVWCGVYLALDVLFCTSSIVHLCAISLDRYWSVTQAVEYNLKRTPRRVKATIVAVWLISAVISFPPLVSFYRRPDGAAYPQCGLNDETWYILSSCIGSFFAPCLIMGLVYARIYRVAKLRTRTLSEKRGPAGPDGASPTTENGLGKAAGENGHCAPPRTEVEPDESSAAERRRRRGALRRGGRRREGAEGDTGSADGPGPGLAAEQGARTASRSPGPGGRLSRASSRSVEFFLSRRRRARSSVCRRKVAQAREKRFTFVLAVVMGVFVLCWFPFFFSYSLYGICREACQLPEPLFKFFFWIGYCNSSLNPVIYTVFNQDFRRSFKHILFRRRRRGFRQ
T1 sequence (P19328 whole entry): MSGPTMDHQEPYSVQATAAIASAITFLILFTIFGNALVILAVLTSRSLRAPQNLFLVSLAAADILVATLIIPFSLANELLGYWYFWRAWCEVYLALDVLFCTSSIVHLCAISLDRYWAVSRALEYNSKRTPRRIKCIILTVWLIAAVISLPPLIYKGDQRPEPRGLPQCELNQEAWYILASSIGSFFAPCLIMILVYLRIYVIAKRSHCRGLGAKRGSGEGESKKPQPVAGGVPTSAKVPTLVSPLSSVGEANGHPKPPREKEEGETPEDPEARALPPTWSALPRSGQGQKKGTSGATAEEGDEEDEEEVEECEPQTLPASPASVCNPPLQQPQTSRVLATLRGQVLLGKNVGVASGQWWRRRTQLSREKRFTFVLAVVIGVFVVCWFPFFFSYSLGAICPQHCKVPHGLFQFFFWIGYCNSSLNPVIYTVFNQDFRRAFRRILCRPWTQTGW
T1 sequence (P22909 whole entry): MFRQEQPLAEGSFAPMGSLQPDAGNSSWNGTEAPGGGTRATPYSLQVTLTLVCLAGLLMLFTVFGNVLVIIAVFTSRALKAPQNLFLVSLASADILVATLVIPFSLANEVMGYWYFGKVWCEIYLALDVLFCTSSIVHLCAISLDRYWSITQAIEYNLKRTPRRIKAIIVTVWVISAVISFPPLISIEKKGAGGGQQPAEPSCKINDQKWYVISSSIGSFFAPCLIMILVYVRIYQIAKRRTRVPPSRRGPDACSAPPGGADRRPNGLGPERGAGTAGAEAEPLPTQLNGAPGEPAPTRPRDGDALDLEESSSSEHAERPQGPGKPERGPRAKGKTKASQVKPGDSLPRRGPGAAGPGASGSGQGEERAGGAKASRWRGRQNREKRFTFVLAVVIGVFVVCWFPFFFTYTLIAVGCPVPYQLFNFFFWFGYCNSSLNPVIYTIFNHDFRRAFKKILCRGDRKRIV
As to the kind of experiment: Inhibition of [3H]clonidine binding to the rat alpha-2-adrenoceptor. It counts as protein assay.

In assay [1], `FC(F)(F)C1Cc2ccccc2CN1` (stereo not given) came in with a Selectivity of 26. The affinity in assay [2], expressed as Ki, was 400 µM.
Taken in the same sequence, the figures for `O=[N+]([O-])c1ccc2c(c1)CNC(C(F)(F)F)C2` (stereo not given) were 750 and 1500 µM.
In turn, `FC(F)(F)C1Cc2ccc(Br)cc2CN1` (stereo not given) had a Selectivity in assay [1] greater than 1900. The Ki in assay [2] was greater than 1000 µM.
Taken in the same sequence, the figures for `NS(=O)(=O)c1ccc2c(c1)CN[C@H](C(F)(F)F)C2` were 26 and 400 µM.
Taken in the same sequence, the figures for `C[C@H]1Cc2sc3ccccc3c2CN1` were 4100 and 1400 µM.
